Target: T1, Chk1 (Homo sapiens, UniProt O14757)
T1 construct: purchased Upstate Biotechnology
T1 sequence (O14757 1-476): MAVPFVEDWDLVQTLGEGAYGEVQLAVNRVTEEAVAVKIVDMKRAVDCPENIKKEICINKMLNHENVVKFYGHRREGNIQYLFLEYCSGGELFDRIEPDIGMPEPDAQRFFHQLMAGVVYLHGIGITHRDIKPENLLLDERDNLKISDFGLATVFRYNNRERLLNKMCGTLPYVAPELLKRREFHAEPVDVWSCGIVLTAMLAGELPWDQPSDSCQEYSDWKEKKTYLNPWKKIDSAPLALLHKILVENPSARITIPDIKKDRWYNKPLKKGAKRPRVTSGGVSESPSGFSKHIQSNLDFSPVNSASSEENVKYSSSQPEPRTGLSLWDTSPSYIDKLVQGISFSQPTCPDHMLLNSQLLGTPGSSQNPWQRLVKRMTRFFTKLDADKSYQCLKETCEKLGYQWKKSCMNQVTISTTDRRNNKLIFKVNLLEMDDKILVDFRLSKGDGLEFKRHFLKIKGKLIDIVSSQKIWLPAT
Assay: Chk1 kinase assay: incorporation of γ-33P ATP into immobilized myelin basic protein
Assay type: biochemical
Details: Table 11; Chk1 only; read-out: Chk1 IC50
How it was run: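 Radiometric filter-free format: Chk1 10 nM, 10 μM ATP; Chk2 20 nM, 30 μM ATP; γ-33P ATP tracer; immobilized MBP substrate; Hepes pH 7.6, 10 mM MgCl2, 1 mM DTT; 1 h RT; 1% DMSO. Scintillation counting of washed plates. IC50/Ki from curve fit.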

SMILES	IC50 [nM]
CNC(=O)c1cc(-c2cccc(CNC3CCc4cc(F)cc(F)c43)c2)cnc1N (stereo not shown) [Example 524, 2-amino-5-(3-{[(5,7-difluoro-2,3-dihydro-1H-inden-1-yl)amino]methyl}phenyl)-N-methylpyridine-3-carboxamide]	50 to 1000
CNC(=O)c1nc(-c2ccc3ccnc(N[C@H]4CCc5ccccc54)c3c2)cnc1N [Example 525, 3-amino-6-{1-[(1S)-2,3-dihydro-1H-inden-1-ylamino]isoquinolin-7-yl}-N-methylpyrazine-2-carboxamide]	50 to 1000
CNC(=O)c1nc(-c2ccc3c(c2)C(N[C@H]2CCc4ccccc42)CC3)cnc1N (stereo partly drawn) [Example 526, 3-amino-6-{3-[(1S)-2,3-dihydro-1H-inden-1-ylamino]-2,3-dihydro-1H-inden-5-yl}-N-methylpyrazine-2-carboxamide]	< 50
CNC(=O)c1nc(-c2cccc(CNC3CCc4cc(CCCO)ccc43)c2)cnc1N (stereo not shown) [Example 527]	< 50
Nc1ncc(-c2cccc(CN[C@H]3CCc4ccccc43)c2)nc1-c1cnco1 [Example 528, 5-(3-{[(1S)-2,3-dihydro-1H-inden-1-ylamino]methyl}phenyl)-3-(1,3-oxazol-5-yl)pyrazin-2-amine]	1000 to 10000
NNC(=O)c1nc(-c2cccc(CN[C@H]3CCc4ccccc43)c2)cnc1N [Example 529, 3-amino-6-(3-{[(1S)-2,3-dihydro-1H-inden-1-ylamino]methyl}phenyl)pyrazine-2-carbohydrazide]	50 to 1000
NC(=O)c1nc(-c2cccc(CN[C@H]3CCc4ccccc43)c2)cnc1N [Example 530, 3-amino-6-(3-{[(1S)-2,3-dihydro-1H-inden-1-ylamino]methyl}phenyl)pyrazine-2-carboxamide]	50 to 1000
CC(=O)c1nc(-c2cccc(CN[C@H]3CCc4ccccc43)c2)cnc1N [Example 531, 1-[3-amino-6-(3-{[(1S)-2,3-dihydro-1H-inden-1-ylamino]methyl}phenyl)pyrazin-2-yl]ethanone]	50 to 1000
Nc1ncc(-c2cccc(CNC3CCc4ccccc43)c2)nc1C(=O)NCc1ccc2ccccc2c1 (stereo not shown) [Example 532, 3-amino-6-{3-[(2,3-dihydro-1H-inden-1-ylamino)methyl]phenyl}-N-(naphthalen-2-ylmethyl)pyrazine-2-carboxamide]	≥ 10000
Nc1ncc(-c2cccc(CNC3CCc4ccccc43)c2)nc1C(=O)NC1CCCCC1 (stereo not shown) [Example 533, 3-amino-N-cyclohexyl-6-{3-[(2,3-dihydro-1H-inden-1-ylamino)methyl]phenyl}pyrazine-2-carboxamide]	1000 to 10000
Nc1ncc(-c2cccc(CN[C@H]3CCc4ccccc43)c2)nc1C(=O)NCc1ccncc1 [Example 534, 3-amino-6-(3-{[(1S)-2,3-dihydro-1H-inden-1-ylamino]methyl}phenyl)-N-(pyridin-4-ylmethyl)pyrazine-2-carboxamide]	1000 to 10000
Nc1ncc(-c2cccc(CO)c2)nc1-c1nnc[nH]1 [Example 535, {3-[5-amino-6-(4H-1,2,4-triazol-3-yl)pyrazin-2-yl]phenyl}methanol]	1000 to 10000
Nc1ncc(-c2cccc(CN[C@H]3CCc4ccccc43)c2)nc1-c1nnc[nH]1 [Example 536, 5-(3-{[(1S)-2,3-dihydro-1H-inden-1-ylamino]methyl}phenyl)-3-(4H-1,2,4-triazol-3-yl)pyrazin-2-amine]	50 to 1000
Nc1ncc(-c2cccc(CN[C@H]3CCc4ccccc43)c2)nc1C(=O)NCC(F)(F)F [Example 537, 3-amino-6-(3-{[(1S)-2,3-dihydro-1H-inden-1-ylamino]methyl}phenyl)-N-(2,2,2-trifluoroethyl)pyrazine-2-carboxamide]	1000 to 10000
Nc1ncc(-c2cccc(CN[C@H]3CCc4ccccc43)c2)nc1C(=O)NCCCCCO [Example 538, 3-amino-6-(3-{[(1S)-2,3-dihydro-1H-inden-1-ylamino]methyl}phenyl)-N-(5-hydroxypentyl)pyrazine-2-carboxamide]	1000 to 10000
Nc1ncc(-c2cccc(CN[C@H]3CCc4ccccc43)c2)nc1C(=O)NCCCCO [Example 539, 3-amino-6-(3-{[(1S)-2,3-dihydro-1H-inden-1-ylamino]methyl}phenyl)-N-(4-hydroxybutyl)pyrazine-2-carboxamide]	50 to 1000
Nc1ncc(-c2cccc(CN[C@H]3CCc4ccccc43)c2)nc1C(=O)NCCN1CCCC1 [Example 540, 3-amino-6-(3-{[(1S)-2,3-dihydro-1H-inden-1-ylamino]methyl}phenyl)-N-(2-pyrrolidin-1-ylethyl)pyrazine-2-carboxamide]	50 to 1000

SMILES	IC50 [nM]
Nc1ncc(-c2cccc(CN[C@H]3CCc4ccccc43)c2)nc1C(=O)NCCN1CCCCC1 [Example 541, 3-amino-6-(3-{[(1S)-2,3-dihydro-1H-inden-1-ylamino]methyl}phenyl)-N-(2-piperidin-1-ylethyl)pyrazine-2-carboxamide]	1000 to 10000
Nc1ncc(-c2cccc(CN[C@H]3CCc4ccccc43)c2)nc1C(=O)NCCN1CCOCC1 [Example 542, 3-amino-6-(3-{[(1S)-2,3-dihydro-1H-inden-1-ylamino]methyl}phenyl)-N-(2-morpholin-4-ylethyl)pyrazine-2-carboxamide]	1000 to 10000
Nc1ncc(-c2cccc(CN[C@H]3CCc4ccccc43)c2)nc1C(=O)NCC1CC1 [Example 543, 3-amino-N-(cyclopropylmethyl)-6-(3-{[(1S)-2,3-dihydro-1H-inden-1-ylamino}methyl}phenyl)pyrazine-2-carboxamide]	50 to 1000
Nc1ncc(-c2cccc(CN[C@H]3CCc4ccccc43)c2)nc1C(=O)NCc1ccccc1 [Example 544, 3-amino-6-(3-{[(1S)-2,3-dihydro-1H-inden-1-ylamino]methyl}phenyl)-N-(phenylmethyl)pyrazine-2-carboxamide]	1000 to 10000
Nc1ncc(-c2cccc(CN[C@H]3CCc4ccccc43)c2)nc1C(=O)NCCc1ccccc1 [Example 545, 3-amino-6-(3-{[(1S)-2,3-dihydro-1H-inden-1-ylamino]methyl}phenyl)-N-(2-phenylethyl)pyrazine-2-carboxamide]	1000 to 10000
Nc1ncc(-c2cccc(CN[C@H]3CCc4ccccc43)c2)nc1C(=O)c1ccccc1 [Example 546, [3-amino-6-(3-{[(1S)-2,3-dihydro-1H-inden-1-ylamino]methyl}phenyl)pyrazin-2-yl](phenyl)methanone]	50 to 1000
Nc1ncc(-c2cccc(CN[C@H]3CCc4ccccc43)c2)nc1C(=O)NCCO [Example 547, 3-amino-6-(3-{[(1S)-2,3-dihydro-1H-inden-1-ylamino]methyl}phenyl)-N-(2-hydroxyethyl)pyrazine-2-carboxamide]	50 to 1000
Nc1ncc(-c2cccc(CN[C@H]3CCc4ccccc43)c2)nc1C(=O)NC1CC1 [Example 548, 3-amino-N-cyclopropyl-6-(3-{[(1S)-2,3-dihydro-1H-inden-1-ylamino]methyl}phenyl)pyrazine-2-carboxamide]	50 to 1000
Nc1ncc(-c2cccc(CN[C@H]3CCc4ccccc43)c2)nc1C(=O)N1CCCC1 [Example 549, 5-(3-{[(1S)-2,3-dihydro-1H-inden-1-ylamino]methyl}phenyl)-3-(pyrrolidin-1-ylcarbonyl)pyrazin-2-amine]	1000 to 10000
Cc1nnc(-c2nc(-c3cccc(CO)c3)cnc2N)[nH]1 [Example 550, {3-[5-amino-6-(5-methyl-4H-1,2,4-triazol-3-yl)pyrazin-2-yl]phenyl}methanol]	1000 to 10000
Nc1ncc(-c2cccc(CO)c2)nc1-c1nnc(-c2ccccc2)[nH]1 [Example 551, {3-[5-amino-6-(5-phenyl-4H-1,2,4-triazol-3-yl)pyrazin-2-yl]phenyl}methanol]	50 to 1000
Nc1ncc(-c2cccc(CO)c2)nc1-c1nnc(Cc2ccccc2)[nH]1 [Example 552, (3-{5-amino-6-[5-(phenylmethyl)-4H-1,2,4-triazol-3-yl]pyrazin-2-yl}phenyl)methanol]	1000 to 10000
CNNC(=O)c1nc(-c2cccc(CN[C@H]3CCc4ccccc43)c2)cnc1N [Example 553, 3-amino-6-(3-{[(1S)-2,3-dihydro-1H-inden-1-ylamino]methyl}phenyl)-N′-methylpyrazine-2-carbohydrazide]	50 to 1000
CN(C)C(=O)c1nc(-c2cccc(CN[C@H]3CCc4ccccc43)c2)cnc1N [Example 554, 3-amino-6-(3-{[(1S)-2,3-dihydro-1H-inden-1-ylamino]methyl}phenyl)-N,N-dimethylpyrazine-2-carboxamide]	50 to 1000
Nc1ncc(-c2cccc(CN[C@H]3CCc4ccccc43)c2)nc1-c1nnc(Cc2ccccc2)[nH]1 [Example 555, 5-(3-{[(1S)-2,3-dihydro-1H-inden-1-ylamino]methyl}phenyl)-3-[5-(phenylmethyl)-4H-1,2,4-triazol-3-yl]pyrazin-2-amine]	50 to 1000
CN(C)CCNC(=O)c1nc(-c2cccc(CN[C@H]3CCc4ccccc43)c2)cnc1N [Example 556, 3-amino-6-(3-{[(1S)-2,3-dihydro-1H-inden-1-ylamino]methyl}phenyl)-N-[2-(dimethylamino)ethyl]pyrazine-2-carboxamide]	50 to 1000
Nc1ncc(-c2cccc(CN[C@H]3CCc4ccccc43)c2)nc1-c1nc(-c2ccccc2)n[nH]1 [Example 557, 5-(3-{[(1S)-2,3-dihydro-1H-inden-1-ylamino]methyl}phenyl)-3-(3-phenyl-1H-1,2,4-triazol-5-yl)pyrazin-2-amine]	< 50
